This is an account of results in ChEMBL document CHEMBL1129155, “Synthesis and antibacterial activity of cephalosporins having hydroxamic acid at C-7 position” (1996).

Molecules are shown by their SMILES. Values after ≈ are worked out from the molar mass of the structure shown.

As a reminder, the MIC is the least concentration at which growth counts as inhibited. Low readings indicate greater potency, high ones weaker potency.

Type in all cases: functional
One test deals with Enterobacter cloacae. The test can be described thus: Compound was evaluated for antibacterial activity against Enterobacter cloacae P99.
Test [1] relates to Escherichia coli. The test can be described thus: Compound was evaluated for antibacterial activity against Escherichia coli DC 0.
In the next test the test system is Klebsiella pneumoniae. Kind of test: Compound was evaluated for antibacterial activity against Klebsiella pneumoniae NCTC 9632.
The subject of the next test is Proteus vulgaris. Kind of test: Compound was evaluated for antibacterial activity against Proteus vulgaris GN76.
Test [2] relates to Pseudomonas aeruginosa. The test can be described thus: Compound was evaluated for antibacterial activity against Pseudomonas aeruginosa 1771.
In test [3] the test system is Pseudomonas aeruginosa. Kind of test: Compound was evaluated for antibacterial activity against Pseudomonas aeruginosa 1771M.
The subject of test [4] is Pseudomonas aeruginosa. Kind of test: Compound was evaluated for antibacterial activity against Pseudomonas aeruginosa 9027.
Test [5] concerns Pseudomonas aeruginosa. The test can be described thus: Compound was evaluated for antibacterial activity against Pseudomonas aeruginosa C-1198.
The subject of test [6] is Staphylococcus aureus. Kind of test: Compound was evaluated for antibacterial activity against Staphylococcus aureus C2379 (MRSA).
For test [7], the system named is Staphylococcus aureus. Kind of test: Compound was evaluated for antibacterial activity against Staphylococcus aureus Smith.
Another test deals with Streptococcus pyogenes. Kind of test: Compound was evaluated for antibacterial activity against Streptococcus pyogenes A77.
The test system of another test is Serratia marcescens. The test can be described thus: Compound was evaluated for antibacterial activity against Serratia marcescens IFO 12648.
The subject of another test is Streptococcus pneumoniae. The test can be described thus: Compound was evaluated for antibacterial activity against Streptococcus pneumoniae type I.
For test [8], the system named is Escherichia coli. Kind of test: Compound was evaluated for antibacterial activity against Escherichia coli DC 2.

`CC(=O)N(O)CCO/N=C(\C(=O)N[C@@H]1C(=O)N2C(C(=O)O)=C(CSc3nc(C)c(CC(=O)O)s3)CS[C@H]12)c1csc(N)n1`: the minimum inhibitory concentration (MIC) with Enterobacter cloacae stood at 50 µg/mL (≈ 74.4 µM); in the test with Escherichia coli [1], 0.781 µg/mL (≈ 1.16 µM); with Klebsiella pneumoniae it was 0.098 µg/mL (≈ 0.146 µM); with Proteus vulgaris it was 0.049 µg/mL (≈ 0.0729 µM); in the test on Pseudomonas aeruginosa [2] it was 3.12 µg/mL (≈ 4.65 µM); against Pseudomonas aeruginosa [3] it was 0.391 µg/mL (≈ 0.582 µM). The MIC worked out at 12.5 µg/mL (≈ 18.6 µM) with Pseudomonas aeruginosa [4]; 50 µg/mL (≈ 74.4 µM) with Pseudomonas aeruginosa [5]; 100 µg/mL (≈ 149 µM) in the test with Staphylococcus aureus [6]; 12.5 µg/mL (≈ 18.6 µM) with Staphylococcus aureus [7]; 0.013 µg/mL (≈ 0.0194 µM) in the test with Streptococcus pyogenes; 1.56 µg/mL (≈ 2.33 µM) in the test with Serratia marcescens. The minimum inhibitory concentration (MIC) against Streptococcus pneumoniae was found to be 0.049 µg/mL (≈ 0.0729 µM); against Escherichia coli [8], 0.098 µg/mL (≈ 0.146 µM).

Consider `CC(=O)N(O)CCO/N=C(\C(=O)N[C@@H]1C(=O)N2C(C(=O)[O-])=C(C[n+]3ccccc3)CS[C@H]12)c1csc(N)n1`, for which the minimal inhibitory concentration (MIC) is 25 µg/mL (≈ 44.5 µM) in the test with Enterobacter cloacae; 0.781 µg/mL (≈ 1.39 µM) against Escherichia coli [1]; 0.098 µg/mL (≈ 0.175 µM) in the test with Klebsiella pneumoniae; 0.781 µg/mL (≈ 1.39 µM) against Proteus vulgaris; 0.781 µg/mL (≈ 1.39 µM) with Pseudomonas aeruginosa [2]; 0.391 µg/mL (≈ 0.696 µM) in the test with Pseudomonas aeruginosa [3]. Moreover, the MIC in the test on Pseudomonas aeruginosa [4] is 6.25 µg/mL (≈ 11.1 µM); with Pseudomonas aeruginosa [5], 25 µg/mL (≈ 44.5 µM); with Staphylococcus aureus [6], 12.5 µg/mL (≈ 22.3 µM); in the test on Staphylococcus aureus [7], 3.12 µg/mL (≈ 5.56 µM); with Streptococcus pyogenes, 0.007 µg/mL (≈ 0.0125 µM); against Serratia marcescens it was 0.391 µg/mL (≈ 0.696 µM). Further, the MIC was 0.049 µg/mL (≈ 0.0873 µM) in the test on Streptococcus pneumoniae and 0.195 µg/mL (≈ 0.347 µM) against Escherichia coli [8].

As to `CC(=O)N(O)CCO/N=C(\C(=O)N[C@@H]1C(=O)N2C(C(=O)[O-])=C(CSc3cccc4[n+]3CCN4)CS[C@H]12)c1csc(N)n1`, the MIC was determined as 50 µg/mL (≈ 78.8 µM) with Enterobacter cloacae; 1.56 µg/mL (≈ 2.46 µM) against Escherichia coli [1]; 0.025 µg/mL (≈ 0.0394 µM) against Klebsiella pneumoniae; 3.12 µg/mL (≈ 4.92 µM) in the test on Proteus vulgaris; 3.12 µg/mL (≈ 4.92 µM) against Pseudomonas aeruginosa [2]; 3.12 µg/mL (≈ 4.92 µM) with Pseudomonas aeruginosa [3]. Besides, the MIC came out at 12.5 µg/mL (≈ 19.7 µM) in the test with Pseudomonas aeruginosa [4]; 50 µg/mL (≈ 78.8 µM) in the test on Pseudomonas aeruginosa [5]; 12.5 µg/mL (≈ 19.7 µM) against Staphylococcus aureus [6]; 1.56 µg/mL (≈ 2.46 µM) with Staphylococcus aureus [7]; 0.025 µg/mL (≈ 0.0394 µM) against Streptococcus pyogenes; 3.12 µg/mL (≈ 4.92 µM) against Serratia marcescens. For the same compound, the values for the minimal inhibitory concentration (MIC) against Streptococcus pneumoniae and in the test with Escherichia coli [8] were 0.025 µg/mL (≈ 0.0394 µM) and 1.56 µg/mL (≈ 2.46 µM), respectively.

Regarding `CC(=O)N(O)CCO/N=C(\C(=O)N[C@@H]1C(=O)N2C(C(=O)[O-])=C(C[n+]3cccc4c3CCC4)CS[C@H]12)c1csc(N)n1`, the MIC worked out at 25 µg/mL (≈ 41.6 µM) with Enterobacter cloacae; 0.391 µg/mL (≈ 0.65 µM) with Escherichia coli [1]; 0.195 µg/mL (≈ 0.324 µM) in the test on Klebsiella pneumoniae; 1.56 µg/mL (≈ 2.6 µM) in the test on Proteus vulgaris; 1.56 µg/mL (≈ 2.6 µM) against Pseudomonas aeruginosa [2]; 0.781 µg/mL (≈ 1.3 µM) in the test on Pseudomonas aeruginosa [3]. For the same compound, the MIC turned out to be 6.25 µg/mL (≈ 10.4 µM) in the test with Pseudomonas aeruginosa [4]; 50 µg/mL (≈ 83.1 µM) in the test with Pseudomonas aeruginosa [5]; 6.25 µg/mL (≈ 10.4 µM) against Staphylococcus aureus [6]; 0.781 µg/mL (≈ 1.3 µM) against Staphylococcus aureus [7]; 0.004 µg/mL (≈ 0.00665 µM) in the test on Streptococcus pyogenes; 0.781 µg/mL (≈ 1.3 µM) in the test with Serratia marcescens. Also, the minimal inhibitory concentration (MIC) came to 0.025 µg/mL (≈ 0.0416 µM) against Streptococcus pneumoniae and 0.195 µg/mL (≈ 0.324 µM) against Escherichia coli [8].

With `CC(=O)N(O)CCO/N=C(\C(=O)N[C@@H]1C(=O)N2C(C(=O)[O-])=C(C[n+]3ccc(CN(O)C(C)=O)cc3)CS[C@H]12)c1csc(N)n1`, the MIC against Enterobacter cloacae was 50 µg/mL (≈ 77.1 µM); with Escherichia coli [1] it was 12.5 µg/mL (≈ 19.3 µM); in the test on Klebsiella pneumoniae it was 0.781 µg/mL (≈ 1.2 µM); in the test with Proteus vulgaris, 6.25 µg/mL (≈ 9.63 µM); against Pseudomonas aeruginosa [2], 25 µg/mL (≈ 38.5 µM); with Pseudomonas aeruginosa [3], 6.25 µg/mL (≈ 9.63 µM). In addition, the MIC against Pseudomonas aeruginosa [4] was 50 µg/mL (≈ 77.1 µM); in the test with Pseudomonas aeruginosa [5] it was above 100 µg/mL; in the test on Staphylococcus aureus [6], 50 µg/mL (≈ 77.1 µM); in the test with Staphylococcus aureus [7], 12.5 µg/mL (≈ 19.3 µM); in the test on Streptococcus pyogenes, 0.007 µg/mL (≈ 0.0108 µM); in the test on Serratia marcescens, 12.5 µg/mL (≈ 19.3 µM). Moreover, the MIC was determined as 0.049 µg/mL (≈ 0.0755 µM) in the test with Streptococcus pneumoniae and 0.391 µg/mL (≈ 0.603 µM) in the test on Escherichia coli [8].

For the compound `CC(C)(O/N=C(\C(=O)N[C@@H]1C(=O)N2C(C(=O)[O-])=C(C[n+]3ccccc3)CS[C@H]12)c1csc(N)n1)C(=O)O` [CEFTAZIDIME], the MIC against Enterobacter cloacae was above 100 µg/mL; against Escherichia coli [1], 0.195 µg/mL (≈ 0.357 µM); in the test with Klebsiella pneumoniae it was 0.049 µg/mL (≈ 0.0896 µM); against Proteus vulgaris, 0.049 µg/mL (≈ 0.0896 µM); with Pseudomonas aeruginosa [2] it was 0.781 µg/mL (≈ 1.43 µM); against Pseudomonas aeruginosa [3], 0.391 µg/mL (≈ 0.715 µM). Besides, the MIC is 3.12 µg/mL (≈ 5.72 µM) in the test with Pseudomonas aeruginosa [4]; above 100 µg/mL in the test with Pseudomonas aeruginosa [5]; 50 µg/mL (≈ 91.5 µM) against Staphylococcus aureus [6]; 6.25 µg/mL (≈ 11.4 µM) in the test on Staphylococcus aureus [7]; 0.098 µg/mL (≈ 0.179 µM) in the test on Streptococcus pyogenes; 0.098 µg/mL (≈ 0.179 µM) in the test on Serratia marcescens. The MIC came to 0.195 µg/mL (≈ 0.357 µM) against Streptococcus pneumoniae and 0.098 µg/mL (≈ 0.179 µM) with Escherichia coli [8].
